Target: T1, angiotensin II receptor (Oryctolagus cuniculus, UniProt P34976)
T1 construct: The aorta was cut into 3~4 mm to form ring samples; from tissue; host or cells: isolated aorta rings of New Zealand White rabbits
T1 sequence (P34976 1-359): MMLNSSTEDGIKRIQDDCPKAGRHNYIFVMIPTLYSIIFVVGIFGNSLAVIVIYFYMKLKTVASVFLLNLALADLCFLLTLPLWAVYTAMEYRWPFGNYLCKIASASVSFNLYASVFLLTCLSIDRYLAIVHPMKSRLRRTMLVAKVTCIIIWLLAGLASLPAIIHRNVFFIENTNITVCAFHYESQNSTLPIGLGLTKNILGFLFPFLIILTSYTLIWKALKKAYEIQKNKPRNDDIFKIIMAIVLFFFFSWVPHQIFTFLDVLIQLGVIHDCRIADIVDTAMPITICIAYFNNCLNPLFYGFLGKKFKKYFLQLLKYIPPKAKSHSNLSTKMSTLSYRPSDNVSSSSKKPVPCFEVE
Test: inhibition of angiotensin II induced contraction of isolated rabbit aorta rings
Type: cell-based, New Zealand White rabbit
Conditions: test compound incubated 20 minutes, 37° C., pH 7.4, read-out: IC50 (concentration being required to inhibit angiotensin II induced contraction by 50%)
Description: The antagonistic activity of the representative compounds of the invention was evaluated using the methodology describe below.
From New Zealand White rabbits (male or female, 2~2.5 kg), aorta was isolated, and fat and connected tissue were removed therefrom. The aorta was cut into 3~4 mm to form ring samples. The aorta sample was suspended in 20 ml of organ bath (37° C.) containing modified Krebs-Henseleit solution saturated with 95% O2 /5% CO2 (pH 7.4).
The aorta preparation was exposed consecutively to 2 g of tensile strength for 90 minutes intermittently washing the sample with 30 minutes interval and then to 30 mM of KCl to observe contraction response. After washing more than three times, the aorta preparation was again allowed to contract three times for stabilization by adding Angiotensin II ([…]) thereto with 30 minutes interval. The third contraction response to Angiotensin II was considered as control.
10 minutes after the third contraction, the test compound was administered to the aorta preparation, which was incubated for 20 minutes.
Comparing angiotensin II contraction curve obtained from the above inhibition test with that of the control, IC50 (concentration being required to inhibit angiotensin II induced contraction by 50%) was determined for each test compound(Table 1).

Row | Structure (SMILES) | IC50 [nM]
1 | CCCCc1nc(C)c(CCC(=O)N2CCCCC2C(=O)OCC)c(=O)n1Cc1ccc(-c2ccccc2-c2nn[nH]n2)cc1 (stereo not drawn) [Compound 67, 2-n-butyl-5-[2'-(2"-ethoxycarbonylpiperidino)carbonylethyl]-6-methyl-3-[[2'-(1H-tetrazol-5-yl)biphenyl-4-yl]methyl]-pyrimidin-4-(3H)-one] | 30.4
2 | CCCCc1nc(C)c(CCC(=O)N2CCCCCCC2)c(=O)n1Cc1ccc(-c2ccccc2-c2nn[nH]n2)cc1 [Compound 71, 2-n-butyl-5-(2'-heptamethyleneiminocarbonylethyl)-6-methyl-3-[[2'-(1 H-tetrazol-5-yl)biphenyl-4-yl]methyl]-pyrimidin-4-(3H)-one] | 16.8
3 | CCCCc1nc(C)c(CCC(=O)N2CCN(C(C)=O)CC2)c(=O)n1Cc1ccc(-c2ccccc2-c2nn[nH]n2)cc1 [Compound 81, 2-n-butyl-5-[2'-(4"-acetylpiperazino)carbonylethyl]-6-methyl-3-[[2'-(1H-tetrazol-5-yI)biphenyl-4-yl]methyl]-pyrimidin-4-(3H)-one] | 9.87
4 | CCCCc1nc(=O)c(CCCC(=O)O)c(C)n1Cc1ccc(-c2ccccc2-c2nn[nH]n2)cc1 [Compound 31, 2-n-butyl-5-(3'-carboxypropyl)-6-methyl-1-[[2'-(1H-tetrazol-5-yl)biphenyl-4-yl]methyl]-pyrimidin-4-(1H)-one] | 17
5 | CCCCc1nc(=O)c(CCC(=O)O)c(CC)n1Cc1ccc(-c2ccccc2-c2nn[nH]n2)cc1 [Compound 35, 2-n-butyl-5-(2'-carboxyethyl)-6-ethyl-1-[[2'-(1H-tetrazol-5-yl)-biphenyl-4-yl]methyl]-pyrimidin-4-(1H)-one] | 62
6 | CCCc1nc(C)c(CC(=O)OCC)c(=O)n1Cc1ccc(-c2ccccc2-c2nnn[nH]2)cc1 [Compound 9, 2-n-propyl-5-ethoxycarbonylmethyl-6-methyl-3-[[2'-(1H-tetrazol-5-yl)biphenyl-4-yl]methyl]-pyrimidin-4-(3H)-one] | 4.35
7 | CCCCc1nc(C)c(CC(=O)N2CCC(C(N)=O)CC2)c(=O)n1Cc1ccc(-c2ccccc2-c2nn[nH]n2)cc1 [Compound 54, 2-n-butyl-5-(4'-aminocarbonylpiperidinocarbonylmethyl)-6-methyl-3-[[2'-(1H-tetrazol-5-yl)biphenyl-4-yl]methyl]-pyrimidin-4-(3H)-one] | 2.2
8 | CCCCc1nc(C)c(CC(=O)N2CCCC2)c(=O)n1Cc1ccc(-c2ccccc2-c2nnn[nH]2)cc1 [Compound 40, 2-n-butyl-5-pyrrolidinocarbonylmethyl-6-methyl-3-[[2'-(1H-tetrazol-5-yl)biphenyl-4-yl]methyl]-pyrimidin-4-(3H)-one] | 2.74
9 | CCCCc1nc(C)c(CC(=O)N2CC=CC2)c(=O)n1Cc1ccc(-c2ccccc2-c2nn[nH]n2)cc1 [Compound 44, 2-n-butyl-5-(3'-pyrrolinocarbonylmethyl)-6-methyl-3-[[2'-(1H-tetrazol-5-yl)biphenyl-4-yl]methyl]-pyrimidin-4-(3H)-one] | 2.04
10 | CCCc1nc(C)c(CCC(=O)N(CC)CC)c(=O)n1Cc1ccc(-c2ccccc2-c2nnn[nH]2)cc1 [Compound 16, 2-n-propyl-5-(2'-diethylaminocarbonylethyl)-6-methyl-3-[[2'-(1H-tetrazol-5-yl)biphenyl-4-yl]methyl]-pyrimidin-4-(3H)-one] | 174
11 | CCCCc1nc(C)c(CC(=O)OCC)c(=O)n1Cc1ccc(-c2ccccc2C(=O)O)cc1 [Compound 38, 2-n-butyl-5-ethoxycarbonylmethyl-6-methyl-3-(2'-carboxy-biphenyl-4-yl)methyl-pyrimidin-4-(3H)-one] | 335
12 | CCCc1nc(=O)c(CC(=O)O)c(C)n1Cc1ccc(-c2ccccc2-c2nnn[nH]2)cc1 [Compound 11, 2-n-propyl-5-carboxymethyl-6-methyl-1-[[2'-(1H-tetrazol-5-yl)-biphenyl-4-yl]methyl]-pyrimidin-4-(1H)-one] | 7.71

From patent US5869476A, “Pyrimidinone derivatives” (Boryung Pharmaceutical Co., Ltd., priority 1994, dated 1999)
